Results taken from patent publication US10406169B2, “Methods of monitoring estriol therapy” (The Regents of the University of California, priority 2015, dated 2019).

Tests used:
Assay type in all cases: in vivo, human
[1] = system: relapsing-remitting multiple sclerosis; experiment: Gadolinium enhancing lesions on brain MRI; set-up: Enhancing lesion volume, mean ± SD: unit not given here
Method: Mixed effects negative binomial regression model and linear mixed effects model were used to compare enhancing lesion volume (log-transformed) between treatment groups at all follow-ups, and mixed effects logistic model was used to compare the number of subjects positive for gadolinium enhancing lesions. Linear mixed effects model was carried out to compare the percent change in whole gray matter and cortical gray matter between treatment groups. For the exploratory endpoints of EDSS, PASAT, fatigue, depression, quality of life and brain volume measures, linear mixed effects model was used to compare treatment groups at 12 and 24 months.
Dual-echo fast spin echo: TR10000, TE12/95, 50 slices, 1×1×3 mm. Fluid attenuated inversion recovery (FLAIR): TR10380, TE88, TI88, TI2500, 50 slices, 1×1×3 mm. Minor changes were allowed to accommodate different platforms and field strengths at each site. MRI data in Dicom format were fully anonymized prior to transfer and then uploaded to the central MRI reading center database. Prior to study onset, each site provided a dummy scan utilizing the standardized sequences for review by the central MRI reading center to verify scan quality and fidelity. Quality control was maintained at each site using standard procedures for clinical scanners (daily phantoms, stability testing). Quarterly phantoms were collected from 12 of the 15 sites, most using the standard American College of Radiology (ACR) phatom. One site upgraded from a Siemens 1.5T to a 3.0T in November 2013, resulting in the acquisition of one month 24 scan on the new scanner. One site upgraded from a Phillips Achieva 3.0T to a Pillips Intera 3.0T after the first subject completed month 24. All subsequent studies were performed on the Intera.
Analysis of gadolinium enhancing lesions and T2 lesions were performed as described by Sicotte et al. (Ann. Neurology 52:421 (2002)). Briefly, MRI data was coded by study site and randomization number. The number and volume of enhancing lesions were quantified on the post contrast T1 weighted scans by an experienced investigator who was blind to treatment group using a semi-automated threshold-based algorithm. To assess T2 lesions, all FLAIR images were RF corrected, then intensity normalized and registered into a common space defined by the baseline scan for each individual. All subsequent scans were registered to the baseline exam for spatial normalization using a rigid body model. T2 lesion areas were determined using a semi-automated intensity based segmentation procedure by a trained, experienced researcher verified by a single investigator (NLS).

[2] = Serum estriol levels in the clinical trial
Source text: Safety assessments, including clinical, blood laboratory safety testing and assessments of estriol levels, occurred at months 0, 3, 6, 12, 18, and 24. On study blood tests included complete blood count (CBC) with differential and platelets; chemistry panel including sodium, potassium, creatinine, BUN, glucose, total protein, albumin, bilirubin (total), alkaline phosphatase, AST (SGOT), and ALT (SGPT), and lipid profile (HDL, LDL and triglycerides, cholesterol. Gynecologic exams were done at month 0, 6, 18 and at month 24 exit, with uterine ultrasounds at months 6, 18 and at month 24 exit. Mammograms were done in screening and at month 24 exit. Adverse event analysis was based on the percentage of patients who discontinued the study and the percentage of patients who discontinued the study possibly due to adverse events.
Free estriol levels were also measured and followed a similar pattern of change within individuals as total levels, with absolute free levels a fraction of the magnitude of the absolute total levels as expected.

[3] = system: relapsing-remitting multiple sclerosis; experiment: Multiple Sclerosis Functional Composite (PASAT3, 9-hole peg, 25-foot walk); set-up: PASAT3 score, Mean ± SD / PASAT3 score, Median / PASAT3 score change from baseline, Mean ± SD / PASAT3 score change from baseline, Median: scale not given here; 25-foot Walk Time change from baseline, Mean ± SD / 25-foot Walk Time change from baseline, Median: unit not given here
Source text: Tertiary end points included gray matter atrophy on MRI, and changes in results from baseline on questionnaires including the Modified Fatigue Impact Scale, Beck Depression Inventory, and MS Quality of Life. Mixed effects negative binomial regression model and linear mixed effects model were used to compare enhancing lesion volume (log-transformed) between treatment groups at all follow-ups, and mixed effects logistic model was used to compare the number of subjects positive for gadolinium enhancing lesions. Linear mixed effects model was carried out to compare the percent change in whole gray matter and cortical gray matter between treatment groups. […] Mixed effects models were used to assess the association among outcomes and estriol levels at all follow-ups and using subjects in both treatment groups. Mixed effects logistic regression model was used to evaluate the association between the number of enhancing lesions and the occurrence of relapse at all follow-up intervals. Linear mixed effects model was carried out to evaluate the association between PASAT change and percent brain volume change, as well as between PASAT change and estriol levels.

[4] = Month 24 (second line, N = 60 / 55)
[5] = Month 24 as printed (first of two lines, N = 70 / 60)
[6] = Patients with baseline score <55, Baseline
[7] = Patients with baseline score <55, Month 12
[8] = Patients with baseline score <55, Month 24

glatiramer acetate [Placebo + GA]
Enhancing lesion volume, mean ± SD ([1]; Baseline): 49.9 ± 121.2
Enhancing lesion volume, median ([1]; Baseline): 0
Percentage patients with enhancing lesions % (95% CI) ([1]; Baseline): 29.3 (19.0-39.6) %
Enhancing lesion volume, mean ± SD ([1]; Month 12): 27.4 ± 147.2
Enhancing lesion volume, median ([1]; Month 12): 0
Percentage patients with enhancing lesions % (95% CI) ([1]; Month 12): 21.0 (10.8-31.1) %
Enhancing lesion volume, mean ± SD ([1]; Month 24): 17.9 ± 71.1
Enhancing lesion volume, median ([1]; Month 24): 0
Percentage patients with enhancing lesions % (95% CI) ([1]; Month 24): 14.6 (5.2-23.9) %
Decrease in enhancing lesion volumes ([1]; month 12 vs baseline): 45%
Serum total estriol level, Mean ± SD ([2]; Month 0): 2.1 ± 2.3 ng/mL
Serum total estriol level, Median ([2]; Month 0): 1.6 ng/mL
Serum estriol concentrations (in words) ([2]; Month 3): did not exceed the estriol assay detection limit
Serum total estriol level, Mean ± SD ([2]; Month 3): 2.1 ± 1.6 ng/mL
Serum total estriol level, Median ([2]; Month 3): 1.8 ng/mL
Serum total estriol level, Mean ± SD ([2]; Month 6): 1.9 ± 1.4 ng/mL
Serum total estriol level, Median ([2]; Month 6): 1.8 ng/mL
Serum total estriol level, Mean ± SD ([2]; Month 12): 2.0 ± 1.4 ng/mL
Serum total estriol level, Median ([2]; Month 12): 1.8 ng/mL
Serum total estriol level, Mean ± SD ([2]; Month 18): 1.8 ± 1.2 ng/mL
Serum total estriol level, Median ([2]; Month 18): 1.8 ng/mL
Serum total estriol level, Mean ± SD ([2]; Month 24): 1.8 ± 1.1 ng/mL
Serum total estriol level, Median ([2]; Month 24): 1.6 ng/mL
PASAT3 score, Mean ± SD ([3]; All patients, Baseline): 52.3 ± 9.1
PASAT3 score, Median ([3]; All patients, Baseline): 56
PASAT3 score % change from baseline, Mean ± SD ([3]; All patients, Month 12): 0.8 ± 9.9%
PASAT3 score % change from baseline, Median ([3]; All patients, Month 12): 0%
PASAT3 score change from baseline, Mean ± SD ([3]; All patients, Month 12): 0.1 ± 4.5
PASAT3 score change from baseline, Median ([3]; All patients, Month 12): 0
PASAT3 score % change from baseline, Mean ± SD ([3]; All patients, Month 24): 2.7 ± 10.3%
PASAT3 score % change from baseline, Median ([3]; All patients, Month 24): 0%
PASAT3 score change from baseline, Mean ± SD ([3]; All patients, Month 24): 1.1 ± 4.3
PASAT3 score change from baseline, Median ([3]; All patients, Month 24): 0
9-Hole Peg Test, Mean ± SD ([3]; Baseline): 19.1 ± 2.7
9-Hole Peg Test, Median ([3]; Baseline): 18.8
25-foot Walk Time, Median ([3]; Baseline): 4.5 s
MSFC Score, Mean ± SD ([3]; Baseline): 0.06 ± 0.79
MSFC Score, Median ([3]; Baseline): 0.24
25-foot Walk Time, Mean ± SD ([3]; Baseline, in s (unit assumed)): 4.9 ± 1.5
9-Hole Peg Test change from baseline, Mean ± SD ([3]; Month 12): −0.1 ± 1.8
9-Hole Peg Test change from baseline, Median ([3]; Month 12): −0.4
MSFC Score change from baseline, Mean ± SD ([3]; Month 12): 0.06 ± 0.38
9-Hole Peg Test change from baseline, Mean ± SD ([3]; Month 24): −0.4 ± 1.5
9-Hole Peg Test change from baseline, Median ([3]; Month 24): −0.5
MSFC Score change from baseline, Mean ± SD ([3]; Month 24): 0.09 ± 0.43
25-foot Walk Time change from baseline, Mean ± SD [3, 4]: 0.1 ± 1.1
25-foot Walk Time change from baseline, Median [3, 4]: 0.1
25-foot Walk Time change from baseline, Mean ± SD [3, 5]: 0.0 ± 0.9
25-foot Walk Time change from baseline, Median [3, 5]: 0.0
PASAT3 score, Mean ± SD [3, 6]: 44.7 ± 9.1
PASAT3 score, Median [3, 6]: 49
PASAT3 score % change from baseline, Mean ± SD [3, 7]: 4.0 ± 14.0%
PASAT3 score % change from baseline, Median [3, 7]: 3.8%
PASAT3 score change from baseline, Mean ± SD [3, 7]: 1.6 ± 6.0
PASAT3 score change from baseline, Median [3, 7]: 1.0
PASAT3 score % change from baseline, Mean ± SD [3, 8]: 6.9 ± 14.7%
PASAT3 score % change from baseline, Median [3, 8]: 9.1%
PASAT3 score change from baseline, Mean ± SD [3, 8]: 3.0 ± 5.9
PASAT3 score change from baseline, Median [3, 8]: 4.0
